We go through 26 compounds from ChEMBL document CHEMBL4011586 (Eur J Med Chem, 2017).

For one data set, the species on record is Homo sapiens. The data set can be described thus: Selectivity index, ratio of IC50 for recombinant human MAO-A to IC50 for recombinant human MAO-B.
Data set [1] has as its target T1, Amine oxidase [flavin-containing] B (Homo sapiens, UniProt P27338).
T1 sequence (P27338 whole entry): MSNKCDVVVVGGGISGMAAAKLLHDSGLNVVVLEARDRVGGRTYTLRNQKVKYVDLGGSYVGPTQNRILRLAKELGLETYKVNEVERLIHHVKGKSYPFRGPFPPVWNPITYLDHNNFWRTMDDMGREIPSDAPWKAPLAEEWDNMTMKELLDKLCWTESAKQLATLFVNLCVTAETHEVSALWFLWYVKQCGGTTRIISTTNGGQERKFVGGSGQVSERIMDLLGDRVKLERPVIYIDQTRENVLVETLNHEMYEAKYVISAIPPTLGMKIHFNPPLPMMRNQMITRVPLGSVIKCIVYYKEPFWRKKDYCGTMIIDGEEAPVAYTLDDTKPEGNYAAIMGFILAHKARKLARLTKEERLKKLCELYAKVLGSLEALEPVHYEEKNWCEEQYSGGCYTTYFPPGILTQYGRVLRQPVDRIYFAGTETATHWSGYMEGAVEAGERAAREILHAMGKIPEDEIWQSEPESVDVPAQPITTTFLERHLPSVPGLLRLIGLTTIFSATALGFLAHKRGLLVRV
The data set can be described thus: Inhibition of recombinant human MAO-B expressed in baculovirus infected BTI insect cells assessed as reduction in H2O2 production using p-tyramine as substrate pretreated for 30 mins followed by substrate addition after 30 mins by Amplex red reagent based assay.

In data set [2] the target is T2, Amine oxidase [flavin-containing] A (Homo sapiens, UniProt P21397).
T2 sequence (P21397 whole entry): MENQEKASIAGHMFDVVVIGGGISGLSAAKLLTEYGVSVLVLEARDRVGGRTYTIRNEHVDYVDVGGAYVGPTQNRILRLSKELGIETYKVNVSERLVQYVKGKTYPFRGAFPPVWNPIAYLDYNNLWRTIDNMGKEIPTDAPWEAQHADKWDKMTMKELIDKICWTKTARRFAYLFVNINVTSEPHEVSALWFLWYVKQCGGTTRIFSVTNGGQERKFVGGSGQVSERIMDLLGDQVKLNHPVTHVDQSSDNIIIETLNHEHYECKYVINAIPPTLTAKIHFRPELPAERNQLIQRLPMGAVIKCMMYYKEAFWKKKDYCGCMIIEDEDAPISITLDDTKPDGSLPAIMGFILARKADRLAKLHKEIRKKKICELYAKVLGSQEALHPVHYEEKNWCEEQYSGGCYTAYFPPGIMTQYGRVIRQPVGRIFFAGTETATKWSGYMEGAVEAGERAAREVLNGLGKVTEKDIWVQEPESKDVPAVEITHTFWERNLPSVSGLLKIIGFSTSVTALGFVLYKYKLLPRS
The data set can be described thus: Inhibition of recombinant human MAO-A expressed in baculovirus infected BTI insect cells assessed as reduction in H2O2 production using p-tyramine as substrate pretreated for 30 mins followed by substrate addition after 30 mins by Amplex red reagent based assay.

A short description of data set [3]: Cytotoxicity against rat PC-12 Adh cells assessed as cell viability at 50 uM after 24 hrs by WST-1 assay relative to control. Type of data set: cell-based. The settings on record: read-out: Activity. For orientation: Formazan colour is commonly taken as a measure of viable cells.
A short description of data set [4]: Cytotoxicity against human SH-SY5Y cells assessed as cell viability at 50 uM after 24 hrs by WST-1 assay relative to control. Type of data set: cell-based. The conditions noted are these: read-out: Activity.
The target of data set [5] is T1, Amine oxidase [flavin-containing] B. Nature of the data set: Competitive inhibition of recombinant human MAO-B expressed in baculovirus infected BTI insect cells assessed as reduction in H2O2 production at 4 to 16 nM using varying levels of p-tyramine as substrate pretreated up to 60 mins followed by substrate addition measured after 30 mins by Line-weaver burk plot analysis. The settings on record: 0.5 h.

The test system of data set [6] is PC-12. Nature of the data set: Neuroprotective activity against rotenone-induced toxicity in rat PC12 cells at 50 to 100 uM pretreated followed by rotenone challenge measured after 24 hrs. Type of data set: functional, cell-based.
Data set [7] concerns PC-12. Nature of the data set: Neuroprotective activity against H2O2-induced toxicity in rat PC12 cells at 50 to 100 uM pretreated followed by H2O2 challenge measured after 24 hrs. In kind it is functional, cell-based.
In data set [8] the target is T1, Amine oxidase [flavin-containing] B. The data set can be described thus: Reversible inhibition of recombinant human MAO-B expressed in baculovirus infected BTI insect cells assessed as reduction in H2O2 production using p-tyramine as substrate at 3 times IC50 pretreated up to 60 mins followed by substrate addition after 30 mins by Amplex red reagent based assay. The settings on record: 0.5 h.

Data set [9] can be described thus: Cytotoxicity against rat PC12 cells assessed as cell viability at 50 uM after 24 hrs by WST-1 assay relative to control. Type of data set: cell-based, PC-12. The settings on record: read-out: Activity.
The target of data set [10] is T1, Amine oxidase [flavin-containing] B. The data set can be described thus: Competitive inhibition of recombinant human MAO-B expressed in baculovirus infected BTI insect cells assessed as reduction in H2O2 production at 11 to 44 nM using varying levels of p-tyramine as substrate pretreated up to 60 mins followed by substrate addition measured after 30 mins by Line-weaver burk plot analysis. The conditions noted are these: 0.5 h.

SMILES strings stand for the structures. Calls of active or inactive are those of the source. The calls are words filed in the database; no cut-off is given here. Bounds are passed on as bounds.

As usually defined, the IC50 is the point on the concentration scale where inhibition reaches its midpoint.

For the compound `Cc1cccc(/N=N/c2ccc(C3=NNC(=O)CO3)cc2)c1`, the Ratio IC50 in the data set listed under Homo sapiens is greater than 4000. For the same compound, the IC50 in [1] is 0.025 µM; in data set [2] it was greater than 100 µM.
The corresponding values for `O=C1COC(c2ccc(/C=C/c3ccc(Cl)cc3)cc2)=NN1` are greater than 185, 0.542 µM and greater than 100 µM.
In the same order, the values of `NC(=O)CN1N=C(c2ccc(NC(=O)c3cccc(Cl)c3)cc2)OCC1=O` are greater than 27, 3.69 µM and greater than 100 µM.
The corresponding values for `O=C1COC(c2ccc(NC(=O)Nc3cccc(Cl)c3)cc2)=NN1` are greater than 34, 2.89 µM and greater than 100 µM.
With `O=C1COC(c2ccc(/N=N/c3ccccc3)cc2)=NN1`, the Ratio IC50 in the data set filed under Homo sapiens is greater than 25000. Besides, the viability at 24 h, 50 µM in [3], in data set [4] and in [9] was greater than 90% in each case. The “inhibition (INH)” value in data set [5] and in data set [8] was “Active” in each case. For the same compound, the IC50 was 0.004 µM in [1] and greater than 100 µM in data set [2]. Besides, the result in the data set on PC-12 [6] and in the data set on PC-12 [7] was inactive.
For `O=C1COC(c2ccc(NCc3cccc(Cl)c3)cc2)=NN1`, the Ratio IC50 in the data set listed under Homo sapiens was greater than 37. Moreover, the IC50 in [1] is 2.69 µM; in [2] it was greater than 100 µM.
Turning to `O=C1COC(c2ccc(NS(=O)(=O)c3cccc(Cl)c3)cc2)=NN1`, the figures for the IC50 in data set [1] and in [2] were greater than 10 µM and greater than 100 µM, respectively.
Regarding `O=C1COC(c2ccc(/N=C/c3cccc(Cl)c3)cc2)=NN1`, the Ratio IC50 in the data set filed under Homo sapiens was greater than 385. Moreover, the viability at 24 h, 50 µM in data set [3], in [4] and in [9] was greater than 90% in each case. The results for the IC50 in data set [1] and in data set [2] were 0.257 µM and greater than 100 µM, respectively. For the same compound, the outcome in the data set on PC-12 [6] and in the data set on PC-12 [7] was inactive. Also, in [8], the “inhibition (INH)” value is reported as “Active”.
For `Cc1cccc(/C=C/c2ccc(C3=NNC(=O)CO3)cc2)c1`, the Ratio IC50 in the data set filed under Homo sapiens is greater than 296. Further, the values for the IC50 in data set [1] and in [2] were 0.338 µM and greater than 100 µM, respectively.
The corresponding values for `O=C1COC(c2ccc(NC(=O)c3cccc(Cl)c3)cc2)=NN1` are greater than 357, 0.284 µM and greater than 100 µM.
For the compound `CCN1N=C(c2ccc(/C=C/c3cccc(Cl)c3)cc2)OCC1=O`, the values for the IC50 in data set [1] and in [2] were greater than 10 µM and greater than 100 µM, respectively.
On to `O=C1COC(c2ccc(/C=C/c3cccc(F)c3)cc2)=NN1`, for which the “inhibition (INH)” value in data set [10] and in [8] was “Active” throughout. In the data set filed under Homo sapiens, the Ratio IC50 was greater than 4540. Moreover, the viability at 24 h, 50 µM in data set [3], in data set [4] and in [9] was greater than 90% throughout. The figures for the IC50 in [1] and in data set [2] were 0.022 µM and greater than 100 µM, respectively. Further, the result with PC-12 [6] and in the data set with PC-12 [7] was inactive.
In the case of `O=C1COC(c2ccc(/C=C/c3ccccc3)cc2)=NN1`, the Ratio IC50 in the data set filed under Homo sapiens was greater than 606. For the same compound, the IC50 is 0.165 µM in [1] and greater than 100 µM in data set [2].
In the same order, the values of `O=C1COC(c2ccc(/N=C/c3cccc(F)c3)cc2)=NN1` are greater than 65, 1.53 µM and greater than 100 µM.
For `O=C1COC(c2ccc(/N=C/c3ccc(Cl)cc3)cc2)=NN1`, the Ratio IC50 in the data set filed under Homo sapiens is greater than 231. The IC50 in data set [1] was 0.433 µM; in data set [2] it was greater than 100 µM.
The corresponding values for `O=C1COC(c2ccc(/C=N/c3cccc(Cl)c3)cc2)=NN1` are greater than 182, 0.551 µM and greater than 100 µM.
The corresponding values for `CN1N=C(c2ccc(/N=C/c3cccc(Cl)c3)cc2)OCC1=O` are greater than 49, 2.03 µM and greater than 100 µM.
The corresponding values for `N#CCCN1N=C(c2ccc(NC(=O)c3cccc(Cl)c3)cc2)OCC1=O` are greater than 24, 4.23 µM and greater than 100 µM.
On to `O=C1COC(c2ccc(/C=N/Nc3cccc(Cl)c3)cc2)=NN1`, for which the Ratio IC50 in the data set listed under Homo sapiens was greater than 18. Besides, the values for the IC50 in data set [1] and in [2] were 0.554 µM and greater than 10 µM, respectively.
In the same order, the values of `O=C1COC(c2ccc(/N=N/c3ccc(Cl)cc3)cc2)=NN1` are greater than 255, 0.392 µM and greater than 100 µM.
In the same order, the values of `O=C1COC(c2ccc(C(=O)Nc3cccc(Cl)c3)cc2)=NN1` are greater than 344, 0.288 µM and greater than 100 µM.
The corresponding values for `O=C1COC(c2ccc(/N=N/c3cccc(F)c3)cc2)=NN1` are greater than 8330, 0.012 µM and greater than 100 µM.
For the compound `O=C1COC(c2ccc(/N=C/c3ccccc3)cc2)=NN1`, the values for the IC50 in data set [1] and in [2] were greater than 10 µM and greater than 100 µM, respectively.
Turning to `Cc1cccc(/C=N/c2ccc(C3=NNC(=O)CO3)cc2)c1`, in the data set listed under Homo sapiens, the Ratio IC50 is greater than 78. In addition, the viability at 24 h, 50 µM in data set [3], in [4] and in data set [9] was greater than 90% throughout. Moreover, the results for the IC50 in data set [1] and in [2] were 1.27 µM and greater than 100 µM, respectively. The outcome with PC-12 [6] and in the data set on PC-12 [7] was inactive. The “inhibition (INH)” value in data set [8] is on record as “Active”.
Regarding `O=C1COC(c2ccc(/N=N/c3cccc(Cl)c3)cc2)=NN1`, the Ratio IC50 in the data set filed under Homo sapiens is greater than 348. In addition, the results for the 50% inhibitory concentration (IC50) in data set [1] and in data set [2] were 0.287 µM and greater than 100 µM, respectively.
The corresponding values for `O=C1COC(c2ccc(/C=C/c3cccc(Cl)c3)cc2)=NN1` are greater than 578, 0.173 µM and greater than 100 µM.
